# According to publication PMC3853718 (Journal of Translational Medicine, 2013):
# Marks after values point to notes of the source that are not given here.
# Key:
# [1] = system: subjects with advanced malignancies; conditions: human, in vivo, iv, 28 days
# [2] = system: PHA-stimulated lymphocytes in whole blood; assay: Ex vivo phytohemagglutinin lymphocyte stimulation assay (BrdU incorporation)
# Procedure: Whole blood isolated from subjects was treated with phytohemagglutinin (PHA) to stimulate cell division in lymphocytes. Following a brief 30-minute exposure to bromodeoxyuridine (BrdU), cells were harvested and stained using an FITC-conjugated antibody specific for BrdU, counterstained with propidium iodide/RNase A, and analyzed using a FACSCalibur flow cytometer.
# clinical = conditions: human, plasma
# nude mice = conditions: once-daily administration for 7 days in nude mice; cited from earlier work
# [3] = Plasma pharmacokinetics after 2-hour IV infusion (LC-MS/MS)
smiles,measurement,setting,value
CCc1cnn2c(NCc3ccc[n+]([O-])c3)cc(N3CCCC[C@H]3CCO)nc12 [dinaciclib],recommended phase 2 dose (RP2D),[1],12 mg/m^2
same,plasma concentration at which BrdU incorporation was completely inhibited,"[2]; 46 subjects, 0.33 to 14 mg/m^2",> 200 ng/mL
same,BrdU response rate,"[2]; RP2D 12 mg/m^2, 7 evaluable subjects, responder = less than 5% BrdU incorporation, 2-sided 95% CI: 59%, 100%",100%
same,Mean percent difference in BrdU uptake (95% CI),"[2]; RP2D 12 mg/m^2, Day 1, Predose – 2 hours, 7 patients","10.72 (4.69, 16.75) percent"
same,Mean percent difference in BrdU uptake (95% CI),"[2]; RP2D 12 mg/m^2, Day 1, Predose – 3 hours, 7 patients","9.28 (1.44, 17.13) percent"
same,Mean percent difference in BrdU uptake (95% CI),"[2]; RP2D 12 mg/m^2, Day 1, Predose – 4 hours, 7 patients","6.05 (-4.03, 16.12) percent"
same,Mean percent difference in BrdU uptake (95% CI),"[2]; RP2D 12 mg/m^2, Day 1, Predose – 6 hours, 7 patients","10.16 (3.89, 16.43) percent"
same,Mean percent difference in BrdU uptake (95% CI),"[2]; RP2D 12 mg/m^2, Day 1, Predose – 8 hours, 6 patients","8.76 (2.87, 14.65) percent"
same,Mean percent difference in BrdU uptake (95% CI),"[2]; RP2D 12 mg/m^2, Day 15, Predose – 2 hours, 7 patients","14.82 (6.02, 23.61) percent"
same,Mean percent difference in BrdU uptake (95% CI),"[2]; RP2D 12 mg/m^2, Day 15, Predose – 4 hours, 7 patients","5.47 (-4.17, 15.12) percent"
same,Mean percent difference in BrdU uptake (95% CI),"[2]; RP2D 12 mg/m^2, Day 15, Predose – 8 hours, 5 patients","16.48 (5.63, 27.34) percent"
same,BrdU incorporation,"[2]; majority of samples, at plasma concentration of 100 ng/mL",less than 5%
same,AUC(0-inf),"clinical; intravenous, 0.33 mg/m2",43 ng·h/mL
same,AUC(0-t),"clinical; intravenous, 0.33 mg/m2",42.8 ng·h/mL
same,Cmax,"clinical; intravenous, 0.33 mg/m2",11.1 ng/mL
same,Tmax,"clinical; intravenous, 0.33 mg/m2",1 h
same,AUC(0-inf),"clinical; intravenous, 0.66 mg/m2",27.6 ng·h/mL
same,AUC(0-t),"clinical; intravenous, 0.66 mg/m2",28.4 ng·h/mL
same,Cmax,"clinical; intravenous, 0.66 mg/m2",13.2 ng/mL
same,Tmax,"clinical; intravenous, 0.66 mg/m2",1 h
same,half-life,"clinical; intravenous, 0.66 mg/m2",1.67 h
same,AUC(0-inf),"clinical; intravenous, 1.32 mg/m2",134 ng·h/mL
same,AUC(0-t),"clinical; intravenous, 1.32 mg/m2",134 ng·h/mL
same,Cmax,"clinical; intravenous, 1.32 mg/m2",69.5 ng/mL
same,Tmax,"clinical; intravenous, 1.32 mg/m2",1 h
same,half-life,"clinical; intravenous, 1.32 mg/m2",3.38 h
same,AUC(0-inf),"clinical; intravenous, 1.85 mg/m2",216 ng·h/mL
same,AUC(0-t),"clinical; intravenous, 1.85 mg/m2",216 ng·h/mL
same,Cmax,"clinical; intravenous, 1.85 mg/m2",108 ng/mL
same,Tmax,"clinical; intravenous, 1.85 mg/m2",2 h
same,half-life,"clinical; intravenous, 1.85 mg/m2",2.66 h
same,Cmax,"clinical; intravenous, 2.59 mg/m2",104 ng/mL
same,Tmax,"clinical; intravenous, 2.59 mg/m2",1 h
same,half-life,"clinical; intravenous, 2.59 mg/m2",3.6 h
same,AUC(0-inf),"clinical; intravenous, 3.63 mg/m2",431 ng·h/mL
same,AUC(0-t),"clinical; intravenous, 3.63 mg/m2",405 ng·h/mL
same,Cmax,"clinical; intravenous, 3.63 mg/m2",163 ng/mL
same,Tmax,"clinical; intravenous, 3.63 mg/m2",1 h
same,half-life,"clinical; intravenous, 3.63 mg/m2",3.59 h
same,AUC(0-inf),"clinical; intravenous, 5.08 mg/m2",327 ng·h/mL
same,AUC(0-t),"clinical; intravenous, 5.08 mg/m2",327 ng·h/mL
same,Cmax,"clinical; intravenous, 5.08 mg/m2",173 ng/mL
same,Tmax,"clinical; intravenous, 5.08 mg/m2",2 h
same,half-life,"clinical; intravenous, 5.08 mg/m2",3.19 h
same,AUC(0-inf),"clinical; intravenous, 7.11 mg/m2",543 ng·h/mL
same,AUC(0-t),"clinical; intravenous, 7.11 mg/m2",542 ng·h/mL
same,Cmax,"clinical; intravenous, 7.11 mg/m2",250 ng/mL
same,Tmax,"clinical; intravenous, 7.11 mg/m2",2 h
same,half-life,"clinical; intravenous, 7.11 mg/m2",3.04 h
same,AUC(0-inf),"clinical; intravenous, 10 mg/m2",687 ng·h/mL
same,AUC(0-t),"clinical; intravenous, 10 mg/m2",694 ng·h/mL
same,Cmax,"clinical; intravenous, 10 mg/m2",319 ng/mL
same,Tmax,"clinical; intravenous, 10 mg/m2",2 h
same,half-life,"clinical; intravenous, 10 mg/m2",3.02 h
same,AUC(0-inf),"clinical; intravenous, 12 mg/m2",1150 ng·h/mL
same,AUC(0-t),"clinical; intravenous, 12 mg/m2",1150 ng·h/mL
same,Cmax,"clinical; intravenous, 12 mg/m2",525 ng/mL
same,Tmax,"clinical; intravenous, 12 mg/m2",2 h
same,half-life,"clinical; intravenous, 12 mg/m2",3.28 h
same,AUC(0-inf),"clinical; intravenous, 14 mg/m2",2020 ng·h/mL
same,AUC(0-t),"clinical; intravenous, 14 mg/m2",2020 ng·h/mL
same,Cmax,"clinical; intravenous, 14 mg/m2",821 ng/mL
same,Tmax,"clinical; intravenous, 14 mg/m2",1 h
same,half-life,"clinical; intravenous, 14 mg/m2",3.09 h
same,half-life,clinical; iv,1.5 to 3.6 h
same,"maximum tolerated dose, defined as the dose associated with 20% weight loss",nude mice,60 mg/kg
same,CL dependence on dose,[3]; 0.33 to 14 mg/m^2,dose independent
same,time at which Cmax was observed after the initiation of the infusion,[3]; 2-hour IV administration,approximately 2 hours
same,CL Mean,"[3]; Day 1, 0.33 mg/m^2, N 1",12.4 L/hr/m^2
same,Vd Mean,"[3]; Day 1, 0.33 mg/m^2, N 1",35.9 L/m^2
same,t½ Mean,"[3]; Day 1, 0.33 mg/m^2, N 1",2.01 h
same,CL Mean,"[3]; Day 1, 0.66 mg/m^2, N 1",18.5 L/hr/m^2
same,Cmax Mean,"[3]; Day 1, 0.66 mg/m^2, N 1",18.6 ng/mL
same,Tmax Median,"[3]; Day 1, 0.66 mg/m^2, N 1",2 h
same,Vd Mean,"[3]; Day 1, 0.66 mg/m^2, N 1",39.4 L/m^2
same,t½ Mean,"[3]; Day 1, 0.66 mg/m^2, N 1",1.48 h
same,Cmax Mean,"[3]; Day 1, 1.32 mg/m^2, N 1",63.8 ng/mL
same,Tmax Median,"[3]; Day 1, 1.32 mg/m^2, N 1",2 h
same,Cmax Mean,"[3]; Day 1, 2.59 mg/m^2, N 3 (n=1)",100^e ng/mL
same,Tmax Median,"[3]; Day 1, 2.59 mg/m^2, N 3 (n=1)",1^e hr
same,CL Mean,"[3]; Day 1, 2.59 mg/m^2, N 3 (n=2)",12.8^d L/hr/m^2
same,Vd Mean,"[3]; Day 1, 2.59 mg/m^2, N 3 (n=2)",61.4^d L/m^2
same,t½ Mean,"[3]; Day 1, 2.59 mg/m^2, N 3 (n=2)",3.28^d hr
same,CL Mean,"[3]; Day 1, 3.63 mg/m^2, N 7 (n=6)",11.2^h L/hr/m^2
